Data: ChEMBL document CHEMBL4616664, “Antineoplastic Agents. 607. Emetine Auristatins” (2020)
Where a name gives a salt, the structure may show the parent alone.

How the values were obtained:
Type in all cases: functional
MCF7 = assay: Growth inhibition of human MCF7 cells incubated for 48 hrs by sulforhodamine B assay; conditions: MCF7, 48 h
BXPC-3 = assay: Growth inhibition of human BxPC3 cells incubated for 48 hrs by sulforhodamine B assay; conditions: BXPC-3, 48 h
SF-268 = assay: Growth inhibition of human SF268 cells incubated for 48 hrs by sulforhodamine B assay; conditions: SF-268, 48 h
KM-20L2 = assay: Growth inhibition of human KM20L2 cells incubated for 48 hrs by sulforhodamine B assay; conditions: KM-20L2, 48 h
NCI-H460 = assay: Growth inhibition of human NCI-H460 cells incubated for 48 hrs by sulforhodamine B assay; conditions: NCI-H460, 48 h
DU-145 = assay: Growth inhibition of human DU145 cells incubated for 48 hrs by sulforhodamine B assay; conditions: DU-145, 48 h
[1] = system: Panel NCI-60 (60 carcinoma cell lines); assay: Growth inhibition of human NCI60 cells

GI50 (MCF7)	GI50 (BXPC-3)	GI50 (NCI-H460)	GI50 (DU-145)	Compound	GI50 (SF-268)	GI50 (KM-20L2)	GI50 [1] [nM]
1600 nM	2390 nM	5700 nM	3420 nM	CC[C@H]1CN2CCc3cc(OC)c(OC)cc3[C@@H]2C[C@@H]1C[C@@H]1c2cc(OC)c(OC)cc2CCN1C(=O)[C@H](C)[C@@H](OC)[C@@H]1CCCN1	3650 nM	3420 nM	–
> 10 µg/mL	> 10 µg/mL	> 10 µg/mL	10 µg/mL	CC[C@H]1CN2CCc3cc(OC)c(OC)cc3[C@@H]2C[C@@H]1C[C@@H]1c2cc(OC)c(OC)cc2CCN1C(=O)CCNC(=O)[C@H](C)[C@@H](OC)[C@@H]1CCCN1C(=O)OC(C)(C)C	> 10 µg/mL	> 10 µg/mL	–
159 nM	3800 nM	2830 nM	97.2 nM	CC[C@H]1CN2CCc3cc(OC)c(OC)cc3[C@@H]2C[C@@H]1C[C@@H]1c2cc(OC)c(OC)cc2CCN1C(=O)CCNC(=O)[C@H](C)[C@@H](OC)[C@@H]1CCCN1C(=O)C[C@@H](OC)[C@H]([C@@H](C)CC)N(C)C(=O)[C@@H](NC(=O)[C@H](C(C)C)N(C)C)C(C)C	186 nM	194 nM	–
10 µg/mL	> 10 µg/mL	> 10 µg/mL	> 10 µg/mL	CC[C@H]1CN2CCc3cc(OC)c(OC)cc3[C@@H]2C[C@@H]1C[C@@H]1c2cc(OC)c(OC)cc2CCN1C(=O)CCNC(=O)OC(C)(C)C	> 10 µg/mL	> 10 µg/mL	–
118 nM	1900 nM	4530 nM	181 nM	CC[C@H]1CN2CCc3cc(OC)c(OC)cc3[C@@H]2C[C@@H]1C[C@@H]1c2cc(OC)c(OC)cc2CCN1CCNC(=O)[C@H](C)[C@@H](OC)[C@@H]1CCCN1C(=O)C[C@@H](OC)[C@H]([C@@H](C)CC)N(C)C(=O)[C@@H](NC(=O)[C@H](C(C)C)N(C)C)C(C)C	272 nM	362 nM	–
54.2 nM	56 nM	–	36.1 nM	CC[C@H]1CN2CCc3cc(OC)c(OC)cc3[C@@H]2C[C@@H]1C[C@H]1NCCc2cc(OC)c(OC)cc21 [EMETINE HYDROCHLORIDE]	–	47 nM	–
–	–	–	–	CC[C@H]1CN2CCc3cc(OC)c(OC)cc3[C@@H]2C[C@@H]1C[C@H]1NCCc2cc(OC)c(OC)cc21 [EMETINE]	–	–	27

Compound	GI50 (MCF7)	GI50 (BXPC-3)	GI50 (NCI-H460)	GI50 (DU-145)	GI50 (SF-268)	GI50 (KM-20L2)	GI50 [1] [nM]
CC[C@H]1CN2CCc3cc(OC)c(OC)cc3[C@@H]2C[C@@H]1C[C@@H]1c2cc(OC)c(OC)cc2CCN1C(=O)CCN.O=C(O)C(F)(F)F.O=C(O)C(F)(F)F	> 10 µg/mL	10.3 µg/mL	> 10 µg/mL	10.1 µg/mL	> 10 µg/mL	> 10 µg/mL	–
CC[C@H]1CN2CCc3cc(OC)c(OC)cc3[C@@H]2C[C@@H]1C[C@@H]1c2cc(OC)c(OC)cc2CCN1C(=O)[C@H](C)[C@@H](OC)[C@@H]1CCCN1C(=O)C[C@@H](OC)[C@H]([C@@H](C)CC)N(C)C(=O)[C@@H](NC(=O)[C@H](C(C)C)N(C)C)C(C)C	35.8 nM	386 nM	198 nM	12.3 nM	30.2 nM	35.8 nM	–
